Consider one molecule from US9527857B2, “HSPC-sparing treatments for RB-positive abnormal cellular proliferation” (G1 Therapeutics, Inc., priority 2013, dated 2016).

In data set [1] the test system is ZR-75-1 (breast ductal carcinoma, Rb-positive). In words: Cellular proliferation assay (CellTiter-Glo), ZR-75-1. Type of data set: cell-based. Here is the method:
Cellular proliferation assays were conducted using the following cancer cell lines: MCF7 (breast adenocarcinoma—Rb-positive), ZR-75-1 (breast ductal carcinoma—Rb-positive), H69 (human small cell lung cancer—Rb-negative) cells, or A2058 (human metastatic melanoma cells—Rb-negative). These cells were seeded in Costar (Tewksbury, Mass.) […] 96 well tissue culture treated white walled/clear bottom plates. Cells were treated with the compounds of Table 1 as nine point dose response dilution series from 10 uM to 1 nM. Cells were exposed to compounds and then cell viability was determined after either four (H69) or six (MCF7, ZR75-1, A2058) days as indicated using the CellTiter-Glo® luminescent cell viability assay (CTG; Promega, Madison, Wis., United States of America) following the manufacturer's recommendations. Plates were read on BioTek (Winooski, Vt.) Syngergy2 multi-mode plate reader. The Relative Light Units (RLU) were plotted as a result of variable molar concentration and data was analyzed using Graphpad (LaJolla, Calif.) Prism 5 statistical software to determine the EC50 for each compound.
Background: In ATP-based viability assays light output follows the ATP content of the culture.

A further data set concerns HSPCs (LKS+). In words: Bone marrow HSPC proliferation by EdU incorporation and flow cytometry. Particulars: 150 mg/kg oral gavage, mice. The data set is classed as in vivo. Here is the method:
. JCNI 2012; 104(6):476-487 (FIG. 2A). […].
Mice were then sacrificed at the indicated times (0, 12, 24, 36, or 48 hours following compound administration), and bone marrow was harvested (n=3 mice per time point), as previously described (Johnson et al. J. Clin. Invest. (2010) 120(7), 2528-2536). Four hours before the bone marrow was harvested, mice were treated with 100 μg of EdU by intraperitoneal injection (Invitrogen). Bone marrow mononuclear cells were harvested and immunophenotyped using previously described methods and percent EdU positive cells were then determined (Johnson et al. J. Clin. Invest. (2010) 120(7), 2528-2536). In brief, HSPCs were identified by expression of lineage markers (Lin−), Sca1 (S+), and c-Kit (K+).
Four hours before animals were sacrificed and the bone marrow was harvested, mice were treated with 100 μg of EdU by intraperitoneal injection. Three mice per group were sacrificed at 12 hours and the remaining three animals per group were sacrificed at 24 hours. Results are shown in FIG. 5A as the ratio of EdU positive cells for treated animals at 12 or 24 hour time points compared to control.
Further experiments were completed with Compound T examining dose response and longer periods of compound treatment. […] […].
Both compounds were administered at 150 mg/kg by oral gavage. One hour prior to harvesting bone marrow, EdU was IP injected to label cycling cells. Bone marrow was harvested at 12, 24, 36, and 48 hours after compound treatment and the percentage of EdU positive HSPC cells was determined at each time point.
On the technique in general: A flow cytometer gives signals particle by particle.

Data set [2] in a line: Metabolic stability in liver microsomes. Particulars: each of the species tested. Type of data set: in vitro ADME, human, dog, rat, monkey, and mouse. Here is the method:
Human, mouse, and dog liver microsomes were purchased from Xenotech, and Sprague-Dawley rat liver microsomes were prepared by Absorption Systems. The reaction mixture comprising 0.5 mg/mL of liver microsomes, 100 mM of potassium phosphate, pH 7.4, 5 mM of magnesium chloride, and 1 uM of test compound was prepared. The test compound was added into the reaction mixture at a final concentration of 1 uM. An aliquot of the reaction mixture (without cofactor) was incubated in shaking water bath at 37 deg. C. for 3 minutes. The control compound, testosterone, was run simultaneously with the test compound in a separate reaction. The reaction was initiated by the addition of cofactor (NADPH), and the mixture was then incubated in a shaking water bath at 37 deg. C. Aliquots (100 μL) were withdrawn at 0, 10, 20, 30, and 60 minutes for the test compound and 0, 10, 30, and 60 minutes for testosterone. […] Test compound samples were analyzed using the Orbitrap high resolution mass spectrometer to quantify the disappearance of parent test compound and detect the appearance of metabolites. […] Half-lives were calculated using GraphPad software, fitting to a single-phase exponential decay equation.
When calculated half-life was longer than the duration of the experiment, the half-life was expressed as >the longest incubation time. The calculated half-life is also listed in parentheses. […]
Background: Liver microsomes are vesicles of endoplasmic reticulum, rich in cytochrome P450 enzymes.

Take `CN1CCN(c2ccc(Nc3ncc4cc5n(c4n3)C3(CCCCC3)CNC5=O)nc2)CC1` [T]: in data set [1], the “activity against ZR75-1 cells compared with PD0332991 (FIG. 25)” value is “more potent activity against ZR75-1 cells than PD0332991” and the “inhibition of cellular proliferation of ZR75-1 cells (FIGS. 25-28)” value was “significant inhibition of cellular proliferation”. Also, the “EdU incorporation into HSPCs at 12 and 24 hours (FIG. 5A)” value in the data set with HSPCs (LKS+) is listed as “reduction in EdU incorporation at 12 hours which was starting to return to normal at 24 hours”. Further, the “half-life in liver microsomes compared with PD0332991” value in data set [2] was “shorter in each species”.
